Assay results published in patent US10870660B2, “Nitrogen-containing condensed ring compounds having dopamine D3 antagonistic effect” (Shionogi & Co., Ltd., priority 2016, dated 2020).

What was measured:
[1] = target: human recombinant dopamine D2 receptor (Homo sapiens (Human), UniProt P14416); assay: Test of binding inhibition for the human dopamine D2 receptor ([3H]-Metylspiperone SPA binding); settings: [3H]-Metylspiperone 1.2 nM, Jump-In HEK cell membranes, read-out: hD2_Ki
Method: Cell membranes: Jump-In HEK cell membranes expressing human recombinant dopamine D2 receptor (2 μg/well)
Buffer solution: 50 mM Tris-HCl (35409-45, Nacalai Tesque) (pH 7.4) containing 120 mM NaCl (31320-05, Nacalai Tesque), 1 mM MgCl2.6H2O (20909-55, Nacalai Tesque), 5 mM KCl (28514-75, Nacalai Tesque) and 2 mM CaCl2 (067-31, Nacalai Chemical, Ltd)
Radioligand: (final concentration) 1.2 nM [^3H]-Metylspiperone ([^3H—N-methyl-]-Metylspiperone, NET-856, 83.8 Ci/mmol, PerkinElmer)
(§1) Non-specific ligand: (final concentration) 10 μM Butaclamol [(+)-Butaclamol Hydrochioride, D033, Sigma]
(§2) SPA beads: SPA beads [WGA PVT SPA Scintillatiion Beads, RPNQ0001 (500 mg), RPNQ0060 (2 g), PerkinElmer] (0.2 mg/well)
(§3) Incubation time and temperature: 120 min at 25° C.
(§4) Butaclamol or the compounds of the present invention were weighed and DMSO was added to make a 10 mM solution. This solution was diluted to each concentration.
[^3H]-Metylspiperone was weighed and the buffer solution was added to make a 3.6 nM solution.
(§5) SPA beads were weighed and stirred in water to make a 50 mg/mL solution. Using this solution, a mixed solution with the cell membranes was prepared.
225 nL of the solutions of the non-specific ligand or the compounds of the present invention at each concentration (in case of vehicle, final concentration 0.3% DMSO) were added in each well of a 384-well white/clear bottom microplate (3706, Corning). Jump-In HEK Cell membranes (final reaction amount: 2 μg protein/well), SPA beads (final reaction amount: 0.2 mg/well) and the buffer were mixed and the mixed solution was left still for more than or equal to 1 h at 4° C. Then, 50 μL of the mixture was added to each well of the plate. In addition, 25 μL of 3.6 nM [^3H]-Metylspiperone (final concentration: 1.2 nM) was added to each well. The plate was sealed by putting TopSeal-A 96/384 well (6050185, PerkinElmer) on the top of the plate, mixed using stirring deaerator (Welltornado, FK-62, Sakaki) and incubated for 120 min at 25° C. After incubation, the radioactivity of [^3H]-Metylspiperone which was binded to D2 receptor was determined by liquid scintillation counter (1450 Microbeta, PerkinElmer) in each well. Non-specific binding was calculated based on the radioactivity of [^3H]-Metylspiperone in the presence of 10 μM non-labeled Butaclamol. The total binding was calculated using the radioactivity of [^3H]-Metylspiperone in the absence of the compounds of the present invention (Vehicle). The Ki values were calculated from dose-response curves.
(§6) Binding activities of the compounds of the present invention were calculated from the following Binding Inhibition Rate (%): Inhibition Rate (%)=[1−(c−a)(b−a)]×100(%) • a: Average cpm of non-specific binding • b: Average cpm of total binding • c: Cpm in the presence of each test compound

[2] = target: human recombinant dopamine D3 receptor (Homo sapiens (Human), UniProt P35462); assay: Test of binding inhibition for the human dopamine D3 receptor ([3H]-Metylspiperone SPA binding); settings: [3H]-Metylspiperone 2 nM, Jump-In HEK cell membranes, read-out: hD3_Ki
human recombinant dopamine D3 receptor, sequence (P35462 whole entry): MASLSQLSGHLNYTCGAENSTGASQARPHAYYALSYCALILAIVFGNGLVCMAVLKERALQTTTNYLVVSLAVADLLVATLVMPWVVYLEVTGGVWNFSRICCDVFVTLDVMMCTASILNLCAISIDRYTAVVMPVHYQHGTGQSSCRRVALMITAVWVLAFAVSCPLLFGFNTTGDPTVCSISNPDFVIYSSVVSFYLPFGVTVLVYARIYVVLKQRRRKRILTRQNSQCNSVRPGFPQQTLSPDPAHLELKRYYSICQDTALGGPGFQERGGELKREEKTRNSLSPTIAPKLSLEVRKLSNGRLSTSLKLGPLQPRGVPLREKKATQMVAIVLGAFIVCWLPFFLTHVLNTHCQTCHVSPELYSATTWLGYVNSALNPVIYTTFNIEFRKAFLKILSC
Method: Cell membranes: Jump-In HEK cell membranes expressing human recombinant dopamine D3 receptor (4 μg/well)
as §1, §2, §3, §4
[^3H]-Metylspiperone was weighed and the buffer solution was added to make a 6 nM solution.
as §5
Jump-In HEK Cell membranes (final reaction amount: 4 μg/well), SPA beads (final reaction amount: 0.2 mg/well) and Tris-HCl buffer were mixed and the mixed solution was left still for more than 60 min at 4° C. Then, 50 μL of the mixture was added to each well of the plate. In addition, 25 μL of 6 nM [^3H]-Metylspiperone (final concentration: 2 nM) was added to each well. […] Non-specific binding was calculated based on the radioactivity of [^3H]-Metylspiperone in the presence of 10 μM non-labeled Butaclamol. The total binding was calculated based on the radioactivity of [^3H]-Metylspiperone in the absence of the compounds of the present invention (Vehicle). The Ki values were calculated from dose-response curves.
as §6

human recombinant dopamine D2 receptor, sequence (P14416 whole entry): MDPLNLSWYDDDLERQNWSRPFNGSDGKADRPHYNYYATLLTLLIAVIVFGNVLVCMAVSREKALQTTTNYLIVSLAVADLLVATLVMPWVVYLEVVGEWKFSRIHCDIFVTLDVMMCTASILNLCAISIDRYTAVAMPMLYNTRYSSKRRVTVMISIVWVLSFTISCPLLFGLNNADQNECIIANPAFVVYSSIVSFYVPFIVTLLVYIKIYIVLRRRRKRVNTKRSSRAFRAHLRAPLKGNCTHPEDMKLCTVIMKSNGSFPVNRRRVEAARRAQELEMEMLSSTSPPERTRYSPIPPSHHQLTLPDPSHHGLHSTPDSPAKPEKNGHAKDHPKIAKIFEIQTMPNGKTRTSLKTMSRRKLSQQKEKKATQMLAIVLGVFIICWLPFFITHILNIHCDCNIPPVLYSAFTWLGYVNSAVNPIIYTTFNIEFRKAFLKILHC

Row | SMILES | Ki [1] | Ki [2]
1 | Cc1ncc(CC(=O)N[C@H]2CC[C@H](CCN3CCc4cn(CCC(F)(F)F)nc4CC3)CC2)s1 [II-088] | > 1900 nM | 7.4 nM
2 | Cn1cc2c(C(=O)N[C@H]3CC[C@H](CCN4CCc5sc(OCC(C)(F)F)nc5C4)CC3)cccc2n1 [III-441] | 170 nM | 0.24 nM
3 | Cc1ncc(CC(=O)N[C@H]2CC[C@](F)(CCN3CCc4nc(OCC(F)(F)F)sc4CC3)CC2)o1 [III-262] | 560 nM | 0.22 nM
4 | Cn1cc2c(C(=O)N[C@H]3CC[C@H](CCN4CCc5sc(OCC(F)(F)F)nc5C4)CC3)cccc2n1 [III-464] | 580 nM | 0.37 nM
5 | Cc1nc(CC(=O)N[C@H]2CC[C@H](CCN3CCc4ccc(OCC(C)(F)F)nc4CC3)CC2)no1 [III-019] |  | 0.14 nM
6 | Cn1c(-c2ccccc2)nc2c1CCN(CC[C@H]1CC[C@H](NC(=O)c3cccc4ncccc34)CC1)C2 [Compound I-070] | 500 nM | 1.4 nM
7 | Cc1cc(CC(=O)N[C@H]2CC[C@](F)(CCN3CCc4nc(OCC(F)(F)F)sc4CC3)CC2)no1 [III-255] | > 1800 nM | 0.67 nM
8 | Cn1cc2c(C(=O)N[C@H]3CC[C@H](CCN4CCc5ccc(OCC(F)F)nc5CC4)CC3)cccc2n1 [II-057] | > 1700 nM | 0.014 nM
9 | Cc1cc2c(C(=O)N[C@H]3CC[C@H](CCN4CCc5ccc(OCC(F)(F)F)nc5CC4)OC3)cccn2n1 [III-228] | 330 nM | 0.16 nM
10 | Cn1cc(OCC(=O)N[C@H]2CC[C@](F)(CCN3CCc4nc(OCC(F)(F)F)sc4CC3)CC2)cn1 [III-268] | 340 nM | 0.39 nM
11 | Cc1ncc(CC(=O)N[C@H]2CC[C@H](CCN3CCc4nc(N(C)CC(F)(F)F)sc4CC3)CC2)s1 [II-084] | 510 nM | 
12 | CC(C)C(=O)N[C@H]1CC[C@H](CCN2CCc3nc(OCC(F)(F)F)sc3CC2)CC1 [III-031] | 240 nM | 0.31 nM
13 | Cc1ncc(CC(=O)N[C@H]2CC[C@H](CCN3CCc4sc(OCC(C)(F)F)nc4C3)CC2)o1 [III-451] | 650 nM | 0.48 nM
14 | Cn1cc2c(C(=O)N[C@H]3CC[C@H](CCN4CCc5nc(OCC(C)(C)F)sc5CC4)CC3)cccc2n1 [III-076] | > 1700 nM | 0.73 nM
15 | Cn1cc(OCC(=O)N[C@H]2CC[C@H](CCN3CCc4nc(OCC(F)(F)F)sc4CC3)OC2)cn1 [III-175] | 650 nM | 0.68 nM
16 | COc1cc(CC(=O)N[C@H]2CC[C@H](CCN3CCc4ccc(OCC(F)(F)F)nc4CC3)CC2)on1 [II-077] | > 1800 nM | 0.095 nM
17 | CCCOc1nc2c(s1)CCN(CC[C@H]1CC[C@H](NC(=O)c3cccc4nn(C)cc34)CC1)C2 [III-544] | > 1700 nM | 0.55 nM
18 | Cc1cc(OCC(=O)N[C@H]2CC[C@](F)(CCN3CCc4ccc(OCC(F)(F)F)nc4CC3)CC2)no1 [III-104] | > 1700 nM | 0.53 nM
19 | Cn1cc(CC(=O)N[C@H]2CC[C@](F)(CCN3CCc4ccc(OCC(F)(F)F)nc4CC3)CC2)cn1 [III-102] | 400 nM | 0.11 nM
20 | CN1Cc2c(C(=O)N[C@H]3CC[C@H](CCN4CCc5ccc(OCC(C)(F)F)nc5CC4)CC3)cccc2C1=O [III-024] | 140 nM | 0.012 nM
21 | Cc1cc(CC(=O)N[C@H]2CC[C@H](CCN3CCc4nc(OCC(F)F)sc4CC3)CC2)no1 [III-282] |  | 0.82 nM
22 | Cn1cc(/C=C/C(=O)N[C@H]2CC[C@H](CCN3CCc4nc(OCC(F)(F)F)sc4CC3)CC2)cn1 [III-138] | 44 nM | 0.057 nM
23 | Cn1cc(/C=C/C(=O)N[C@H]2CC[C@H](CCN3CCc4nc(OCC(F)(F)F)sc4CC3)OC2)cn1 [III-168] | 140 nM | 0.13 nM
24 | O=C1Cc2cccc(C(=O)N[C@H]3CC[C@H](CCN4CCc5nc(OCC(F)F)sc5CC4)CC3)c2N1 [III-280] | 500 nM | 0.11 nM

Row | SMILES | Ki [1] | Ki [2]
25 | CC(Oc1nc2c(s1)CCN(CC[C@H]1CC[C@H](NC(=O)c3cccc4c3CN(C)C4=O)CC1)CC2)C(F)(F)F (some centres unmarked) [III-064] | 640 nM | 0.026 nM
26 | Cc1nnc(CC(=O)N[C@H]2CC[C@](F)(CCN3CCc4nc(OCC(F)(F)F)sc4CC3)CC2)s1 [III-269] | 290 nM | 0.36 nM
27 | Cc1nnc(CC(=O)N[C@H]2CC[C@](F)(CCN3CCc4nc(OCC(F)(F)F)sc4CC3)CC2)o1 [III-253] | 610 nM | 0.58 nM
28 | Cn1cc(CC(=O)N[C@H]2CC[C@H](CCN3CCc4nc(OCC(F)(F)F)sc4CC3)CC2)cn1 [III-037] |  | 0.2 nM
29 | Cn1cc2c(C(=O)N[C@H]3CC[C@H](CCN4CCc5sc(COC(F)(F)F)nc5C4)CC3)cccc2n1 [III-623] | > 1800 nM | 0.83 nM
30 | Cc1nc(/C=C/C(=O)N[C@H]2CC[C@H](CCN3CCc4sc(N5CC(F)(F)C5)nc4C3)CC2)cs1 [III-706] | 290 nM | 0.051 nM
31 | Cc1nnc(CC(=O)N[C@H]2CC[C@H](CCN3CCc4sc(CCC(F)(F)F)nc4C3)CC2)o1 [III-674] | 1100 nM | 1.1 nM
32 | Cn1cc2c(C(=O)N[C@H]3CC[C@H](CCN4CCc5ccc(OCC(F)(F)F)nc5CC4)OC3)cccc2n1 [II-087] | 260 nM | 0.059 nM
33 | Cc1ncc(CC(=O)N[C@H]2CC[C@H](CCN3CCc4nc(OCC5CC5)sc4CC3)CC2)s1 [II-090] | > 1900 nM | 0.64 nM
34 | Cc1nnc(CC(=O)N[C@H]2CC[C@H](CCN3CCc4nc(OCC(F)F)sc4CC3)CC2)o1 [III-273] | 570 nM | 0.78 nM
35 | O=C(N[C@H]1CC[C@H](CCN2CCc3sc(Cc4ccccc4)nc3C2)CC1)c1cccc2ncccc12 [Compound I-014] | > 1700 nM | 1.3 nM
36 | Cc1cnc(CC(=O)N[C@H]2CC[C@H](CCN3CCc4nc(OCC(F)(F)F)sc4CC3)OC2)o1 [III-220] | 1100 nM | 0.78 nM
37 | Cc1ncc(CC(=O)N[C@H]2CC[C@H](CCN3CCc4ccc(OC5CCOC5)nc4CC3)CC2)s1 (some centres unmarked) [III-052] | > 1800 nM | 1.1 nM
38 | CCN1Cc2c(C(=O)N[C@H]3CC[C@H](CCN4CCc5ccc(OCC(F)(F)F)nc5CC4)OC3)cccc2C1=O [III-236] | 120 nM | 0.086 nM
39 | Cc1ncc(CC(=O)N[C@H]2CC[C@H](CCN3CCc4sc(CCC(F)(F)F)nc4C3)CC2)o1 [III-696] | 800 nM | 0.2 nM
40 | Cn1cc2c(C(=O)NN3CCC(CCN4CCc5sc(OCC(F)(F)F)nc5C4)CC3)cccc2n1 [III-661] | 1300 nM | 0.5 nM
41 | Cc1ncc(OCC(=O)N[C@H]2CC[C@](F)(CCN3CCc4ccc(OCC(F)(F)F)nc4CC3)CC2)cn1 [III-088] | 310 nM | 0.31 nM
42 | Cn1cc(CC(=O)N[C@H]2CC[C@H](CCN3CCc4ccc(OCC(F)(F)F)nc4CC3)OC2)cn1 [III-230] | 640 nM | 0.99 nM
43 | Cc1cc(OCC(=O)N[C@H]2CC[C@H](CCN3CCc4sc(N5CC(F)(F)C5)nc4C3)CC2)no1 [III-581] | 810 nM | 
44 | Cc1ncc(CC(=O)N[C@H]2CC[C@H](CCN3CCc4nc(OCC(F)(F)F)sc4CC3)CC2)s1 [II-053] | 730 nM | 
45 | Cc1ncccc1C(=O)N[C@H]1CC[C@H](CCN2CCc3nc(OCC(F)(F)F)sc3CC2)OC1 [III-182] |  | 0.56 nM
46 | COc1cc(CC(=O)N[C@H]2CC[C@H](CCN3CCc4sc(N5CC(F)(F)C5)nc4C3)CC2)on1 [III-578] | > 1700 nM | 
47 | Cn1cc2c(C(=O)N[C@H]3CC[C@H](CCN4CCc5ccc(OCC(C)(F)F)nc5CC4)CC3)cccc2n1 [III-027] | 330 nM | 
48 | COc1cc(CC(=O)N[C@H]2CC[C@H](CCN3CCc4nc(OCC(F)(F)F)sc4CC3)OC2)on1 [III-199] |  | 0.2 nM
